7 compounds from ChEMBL document CHEMBL1201862, “PubChem BioAssay data set” (2004) can be followed below.

Molecules are shown by their SMILES.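 Each compound was tested at five concentrations against cells in 96-well plates for 48 hours. GI50 = concentration required for 50% inhibition of growth.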 The source made the active and inactive calls. Rule as the data show it: active = GI50 up to about 1.1 µM and inactive = higher. A value given as a limit tells only on which side of the number the result lay.

Test systems include NCI-H522; SF-539; PC-3; BT-549; HCC 2998; NCI-H460; Hs-578T; OVCAR-8; SF-268; SW-620; SN12C; EKVX; SR; RXF 393; M14; T47D; OVCAR-3; HCT-116; TK-10; 786-0.
Test in all cases: DTP human tumour cell line panel, 48 h

In general, GI50 refers to the concentration giving 50% growth inhibition. On to `[O-][S+]1SC(=S)C2C=CC=CC21` (stereo not given), for which the GI50 with NCI-H522 was 76.2 µM (inactive); in the assay on SF-539, > 100 µM (inactive); in the assay on PC-3, > 100 µM (inactive); in the assay with BT-549, > 100 µM (inactive); in the assay with HCC 2998, > 100 µM (inactive); in the assay on NCI-H460 it was 34 µM (inactive). Besides, the GI50 in the assay with Hs-578T is 84.3 µM (inactive); in the assay with OVCAR-8 it was > 100 µM (inactive); with SF-268, > 100 µM (inactive); in the assay on SW-620, > 100 µM (inactive); in the assay with SN12C, > 100 µM (inactive); in the assay on EKVX, 57.5 µM (inactive). The GI50 with SR is > 100 µM (inactive); in the assay with RXF 393 it was > 100 µM (inactive); with M14, 23.2 µM (inactive); in the assay on T47D, > 100 µM (inactive); with OVCAR-3 it was > 100 µM (inactive); with HCT-116, 85.5 µM (inactive). The GI50 in the assay with TK-10 and in the assay with 786-0 was > 100 µM (inactive) each time.
On to `O=c1[nH]c2cc(C(F)(F)F)ccc2nc1CBr`, for which the GI50 is 0.36 µM (active) with NCI-H522; 8.41 µM (inactive) in the assay on SF-539; 13.1 µM (inactive) in the assay with PC-3; 13.1 µM (inactive) in the assay with BT-549; 17.8 µM (inactive) in the assay on HCC 2998; 13.9 µM (inactive) in the assay with NCI-H460. Moreover, the GI50 in the assay with Hs-578T is 22 µM (inactive); in the assay with OVCAR-8, 10.4 µM (inactive); in the assay on SF-268, 21.3 µM (inactive); in the assay with SW-620, 9.59 µM (inactive); in the assay on SN12C, 9.31 µM (inactive); in the assay on EKVX it was 15.8 µM (inactive). Also, the GI50 was 4.85 µM (inactive) in the assay on SR; 12.4 µM (inactive) in the assay with RXF 393; 8.3 µM (inactive) in the assay on M14; 16 µM (inactive) with T47D; 9.77 µM (inactive) with OVCAR-3; 13.5 µM (inactive) in the assay with HCT-116. Besides, the GI50 was 13.9 µM (inactive) in the assay with TK-10 and 6.62 µM (inactive) in the assay with 786-0.
`CC1=CC[C@H](C(C)C)C(C(O)[C@@H](C)O[Si](c2ccccc2)(c2ccccc2)C(C)(C)C)C1=O` (stereo not given in full): the GI50 in the assay on NCI-H522 is 16.5 µM (inactive); with SF-539, 20.1 µM (inactive); in the assay on PC-3, 14 µM (inactive); in the assay on BT-549, 18.9 µM (inactive); in the assay with HCC 2998, 12.7 µM (inactive); with NCI-H460, 14.8 µM (inactive). Besides, the GI50 in the assay on Hs-578T is 28 µM (inactive); in the assay with OVCAR-8, 22.8 µM (inactive); in the assay on SF-268, 21.1 µM (inactive); in the assay with SW-620, 18.9 µM (inactive); in the assay on SN12C, 17.9 µM (inactive); in the assay on EKVX, 13.3 µM (inactive). Further, the GI50 is 14.5 µM (inactive) with SR; 13.5 µM (inactive) with RXF 393; 15.3 µM (inactive) in the assay with M14; 13.2 µM (inactive) in the assay on T47D; 17 µM (inactive) in the assay on OVCAR-3; 10.6 µM (inactive) in the assay on HCT-116. Besides, the GI50 was 15.7 µM (inactive) in the assay with TK-10 and 15 µM (inactive) in the assay with 786-0.
Take `Clc1ccc(C2NN=C3c4ccccc4OCC32)cc1` (stereo not given): the GI50 is 1.5 µM (inactive) with NCI-H522; 2.17 µM (inactive) with SF-539; 4.11 µM (inactive) with PC-3; 13.5 µM (inactive) in the assay on BT-549; 2.62 µM (inactive) with HCC 2998; 4.3 µM (inactive) in the assay on NCI-H460. Besides, the GI50 is 3.2 µM (inactive) with Hs-578T; 3.94 µM (inactive) in the assay with OVCAR-8; 5.36 µM (inactive) in the assay with SF-268; 3.64 µM (inactive) with SW-620; 5.73 µM (inactive) in the assay with SN12C; 3.59 µM (inactive) with EKVX. The GI50 with SR is 1.86 µM (inactive); in the assay on RXF 393, 3.46 µM (inactive); in the assay on M14, 2.84 µM (inactive); in the assay on T47D it was 5.83 µM (inactive); with OVCAR-3, 5.16 µM (inactive); in the assay on HCT-116, 2.81 µM (inactive). For the same compound, the GI50 in the assay with TK-10 is 22.8 µM (inactive); with 786-0, 4.65 µM (inactive).
As to `O=C1C=CC2(O[C@H](C3CCCCC3)[C@@H](C3CCCCC3)O2)C(SC(=O)c2ccccc2)C1` (stereo not given in full), the GI50 was 1.04 µM (active) in the assay with NCI-H522; 2.88 µM (inactive) in the assay with SF-539; 2.23 µM (inactive) in the assay on PC-3; 3.1 µM (inactive) in the assay with BT-549; 1.25 µM (inactive) in the assay with HCC 2998; 7.8 µM (inactive) in the assay on NCI-H460. In addition, the GI50 in the assay with Hs-578T is 1.92 µM (inactive); in the assay with OVCAR-8, 1.73 µM (inactive); in the assay on SF-268, 2.62 µM (inactive); with SW-620, 1.91 µM (inactive); in the assay with SN12C, 1.82 µM (inactive); with EKVX, 6.1 µM (inactive). Also, the GI50 in the assay on SR is 0.925 µM (active); with RXF 393 it was 1.01 µM (active); in the assay with M14, 2.14 µM (inactive); with T47D it was 0.975 µM (active); in the assay with OVCAR-3, 0.891 µM (active); with HCT-116 it was 0.918 µM (active). Further, the GI50 is 2.26 µM (inactive) in the assay on TK-10 and 1.68 µM (inactive) in the assay on 786-0.
As to `CC(C)(C)c1cc(OCc2nnc3sc(Cc4ccccc4)nn23)c(Cl)cc1OCc1nnc2sc(Cc3ccccc3)nn12`, the GI50 was 37.2 µM (inactive) in the assay with NCI-H522; 30.8 µM (inactive) in the assay with SF-539; 30.1 µM (inactive) in the assay with PC-3; 21.5 µM (inactive) with BT-549; 4.4 µM (inactive) in the assay with HCC 2998; 17.7 µM (inactive) in the assay with NCI-H460. In addition, the GI50 in the assay on Hs-578T was > 100 µM (inactive); with OVCAR-8 it was 17.1 µM (inactive); with SF-268, 44.2 µM (inactive); in the assay with SW-620, 26.7 µM (inactive); with SN12C, 44.6 µM (inactive); in the assay on EKVX it was 27.3 µM (inactive). Besides, the GI50 in the assay on SR is 3.52 µM (inactive); in the assay on RXF 393, 18.1 µM (inactive); in the assay with M14, 29 µM (inactive); with T47D it was 9.59 µM (inactive); in the assay on OVCAR-3, 30.7 µM (inactive); in the assay on HCT-116, 24.3 µM (inactive). Also, the figures for the GI50 with TK-10 and in the assay with 786-0 were 30.1 µM (inactive) and 17.3 µM (inactive), respectively.
Turning to `COc1cc(N(CCC#N)CCC#N)ccc1/C=C1\SC(=S)NC1=O`, the GI50 with NCI-H522, in the assay on SF-539, in the assay with PC-3, in the assay on BT-549, in the assay with HCC 2998 and in the assay on NCI-H460 was > 100 µM (inactive) each time. Moreover, the GI50 with Hs-578T, with OVCAR-8, with SF-268, in the assay with SW-620, with SN12C and with EKVX was > 100 µM (inactive) throughout. The GI50 in the assay with SR, with RXF 393, with M14, in the assay on T47D, in the assay with OVCAR-3 and in the assay with HCT-116 was > 100 µM (inactive) in each case. The GI50 with TK-10 and in the assay on 786-0 was > 100 µM (inactive) each time.
